Assay results as given in PMC3575795 (Nucleic Acids Research, 2012).

Biological target: T1, MfpB (Mycobacterium fluoroquinolone resistance protein B) (Mycolicibacterium smegmatis, UniProt A0QSX9)
T1 sequence (A0QSX9 1-193): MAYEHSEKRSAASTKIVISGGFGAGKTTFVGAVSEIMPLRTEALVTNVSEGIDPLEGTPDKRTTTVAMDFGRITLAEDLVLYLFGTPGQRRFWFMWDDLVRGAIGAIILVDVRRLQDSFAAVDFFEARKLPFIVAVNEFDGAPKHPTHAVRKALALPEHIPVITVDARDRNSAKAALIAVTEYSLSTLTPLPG
Test: isothermal titration calorimetry
Format: binding

Row | Kd [nM] | Compound
1 | 10.5 ± 2.9 | Nc1nc2c(ncn2[C@@H]2O[C@H](COP(=O)(O)OP(=O)(O)O)[C@@H](O)[C@H]2O)c(=O)[nH]1 [GDP]
2 | 11.8 ± 3.2 | Nc1nc2c(ncn2[C@@H]2O[C@H](COP(=O)(O)OP(=O)(O)OP(O)(O)=S)[C@@H](O)[C@H]2O)c(=O)[nH]1 [GTP-γ-S]
